From patent US8410068B2, “Compounds for the treatment or alleviation of edema, and methods for their use” (Index Pharmaceuticals AB, priority 2007, dated 2013) come the findings set out here.

Data set [1] deals with tetradecanoylphorbol 13-acetate (TPA) induced ear edema. Nature of the data set: TPA-induced ear edema model. The format is in vivo, mice. The following applies: for AUC reduction (%) TPA: 10 μg one single s.c. injection 20 minutes before TPA, compared to PBS control; for Peak reduction (%) TPA: 10 μg subcutaneously 20 minutes before induction of edema. How it is done:
A stock solution of TPA was prepared by dissolving TPA in DMSO, 1 mg/mL, and was stored frozen at −80° C. For study B-E, a working solution was prepared with 200 μL of the TPA stock solution added to 800 μL acetone. The working solution was used the same day as it was prepared.
Each cage was identified by a cage card marked with study number, group number, ethical approval number, sex and animal ear numbers. The animals were individually marked on the tail with transverse lines corresponding to the animals' number, using a permanent-ink felt pen. An illustration of the protocols used for the different treatments is outlined in Table 4. The compounds were tested according to the same protocols with necessary modifications.
Intraperitoneal (i.p.) injections were performed by giving 100 μL in the lower right quadrant of the abdomen. Subcutaneous injections were done with 100 μL in the neck region. Intranasal administration was performed by letting the mouse inhale droplets into the nostrils, total volume 40 μL. All administrations were done on non-anesthetized mice.
(§1) Both outer ears of a non-anesthetized mouse were washed with mild soap (Palmolive, Sweden) using a soft tooth brush, the ears were dried with tissue and cleaned with tissue soaked with acetone. After allowing the acetone to evaporate, TPA or AA was applied on both sides, 10 μL, on each side of the ear with care to cover the whole ear. The mouse was held for 20 seconds to allow the solvent to evaporate.
Intraperitoneal injections were given in the lower right quadrant of the abdomen with the animal held in a supine position. Subcutaneous (s.c.) injections were given in the neck of the animals. Intranasal administrations were given to mice held in a slightly reclining position. With an adjustable micro-pipette 40 μL of the test substance was given in droplets on the nostrils and the mouse was allowed to aspirate at free will.
(§2) The ears of non-anesthetized mice were measured at different time points for up to 96 hours after the TPA was administered, or up to 24 hours for the AA model. The first measurements were done before the edema was induced. The thickness was recorded with a spring loaded dial micrometer (Limit, Thickness Gauge, accuracy 0.01 mm, contact area Ø6 mm, Luna AB, Allingsås, Sweden) in triplicates at all time points per ear.
(§3) The average thickness for both ears on a mouse was calculated and compared to the average thickness of the ears at the starting time point. The value obtained at the start of the experiment was set as 100%. The peak values and area under the curve (AUC) values for the treatment groups were calculated and compared to the inflamed control group, treated with PBS (set as 100%), and expressed as a percentage change (Δ% AUC).
(§4) Area under the curve (AUC) with base line set as 100 was calculated using GraphPad Prism version 4.03 for Windows (GraphPad Software, San Diego Calif. USA, www.graphpad.com).
AUC reduction and P-values were calculated against the positive control (TPA or AA+PBS).

The test system of data set [2] is OVA induced airway inflammation. The data set is described as follows: Ovalbumin (OVA) induced allergic airway inflammation, BAL fluid cell counts. The format is in vivo, Balb/c mice. The following applies: prophylactic protocol, 50 μg/animal intranasal on day 16 and 21; for cell migration into BAL fluid: second experiment. On the procedure: Mice were sensitized intraperitoneally with 200 μL OVA/aluminium hydroxide gel (1:3) on day 0 and 12 (see FIG. 6). OVA (chicken egg albumin grade V, Sigma, St. Louis, Mo.) was dissolved in saline and mixed with aluminium hydroxide gel to a concentration of 50 μg/mL by rotation at 4° C. for 3 h. On days 23, 26, 30 and 33 (see FIG. 6), mice were challenged in the lungs by inhalation of aerosolized OVA for 30 minutes using a Batelle exposure chamber. Aerosols were generated by a compressed-air nebulizer (Collison 6-jet) at airflow 7.4 L/min using a nebulizer concentration of 10 mg/mL OVA dissolved in PBS (Sigma, St Louis, Mo., USA). The control group with non-sensitized animals received no other treatment than aerosolized OVA at days 23, 26, 30 and 33.
In this OVA model (FIG. 6), a total of 4 oligonucleotides were tested, IDX9025, IDX9038, IDX9053 (Table 1, SEQ ID NO 2-4) and IDX0150 (Table 3, SEQ ID NO 11). The oligonucleotides were synthesized by biomers.net GmbH, Ulm, Germany and stored frozen at −20° C. The oligonucleotides were diluted with PBS to the working concentration (1,247 μg/μL) and kept at −20° C. until the first day of instillation, thereafter they were placed at 4° C.
In a first experiment, both prophylactic and therapeutic protocols were tested (see FIG. 6). The drug treatment consisted of intranasal instillations of IDX0150 (1,247 μg/μL, provided by InDex Pharmaceuticals AB, Stockholm, Sweden) on days 16 and 21 (prophylactic protocol), on days 30 and 33 (therapeutic protocol A) or on days 30 and 34 (therapeutic protocol B). The instillations in the therapeutic protocols (A & B) on days 30 and 33 were given 4 h after aerosol challenge. The second instillation in protocol B on day 34 was given 24 h after the last aerosol challenge. The drug was administered in 40 μL PBS giving a dose of ˜50 μg/mice (49.88 μg/mice). The two sensitized sham-treatment groups were instilled with PBS, the same total volume as for the treatment groups, according to either the prophylactic protocol (days 16 and 21) or to the therapeutic protocol A (days 30 and 33).
In a second experiment, since administration of IDX0150 in the first experiment using prophylactic protocol (FIG. 6) gave a significant reduction of airway inflammation (FIG. 7), three other substances were tested with the same protocol. The drug treatment consisted of intranasal instillations of IDX9025, IDX9038 and IDX9053 (Table 1) (1,247 μg/μL, provided by InDex Pharmaceuticals AB) on days 16 and 21 (see FIG. 6, prophylactic protocol). All substances were administered in 40 μL PBS giving a dose of ˜50 μg/mice (49.88 μg/mice). The two sensitized sham-treatment groups were instilled with PBS, the same total volume as for the treatment groups, according to the prophylactic protocol (days 16 and 21).
Mice were killed by cervical dislocation 42 h after the last OVA aerosol challenge. The trachea was cannulated with polyethylene tubing (Becton Dickinson, Sparks, Md., USA) and bronchoalveolar lavage (BAL) was performed using 4×1 mL aliquots of ice-cold Hank's balanced salt solution (HBSS) (Sigma, St Louis, Mo., USA). The BAL fluid was centrifuged (400 g, 10 min, 4° C.) and the BAL fluid cells were resuspended in 0.4 mL PBS. The total number of leukocytes counted using tryphan blue exclusion in a Barker chamber. Duplicate Cytospin (Cytospin 3, Shandon, Runcorn, UK) preparations of BAL fluid cells were stained with May Grünewald Giemsa for differential counts, using standard morphological criteria.
Statistical comparisons were performed using One-way analysis of variance (ANOVA) using Dunnett's post hoc correction to compare with sensitized PBS treated control mice (GraphPad Prism 3). Data are shown as mean±standard deviation. P<0.05 was considered significant.

The test system of data set [3] is arachidonic acid (AA) induced ear edema. The data set is described as follows: Arachidonic acid (AA) induced ear edema model. Format: in vivo, mice. How it is done: A stock solution of AA was prepared by diluting AA in acetone, 4 mg/10 μL, and was stored frozen at −80° C. A final working solution, 1 mg/10 μL, in acetone was prepared. The working solution was used within one hour after preparation.
as §1, §2, §3, §4
In addition to the experiments done with the control compounds and IDX0001, all other test compounds were investigated in a similar fashion in the TPA and/or AA ear edema models, where the test compounds were given subcutaneously (10 μg) 20 minutes before induction of edema. The results were expressed as reduction of peak value and reduction of area under curve (AUC) in Table 5.

Regarding “G*G*G*TCGTCTG*C*G*G (GGGTCGTCTGCGG; DNA, linkages s3 o6 s3 (s phosphorothioate, o phosphodiester), methylation of C not given here) [IDX9053]”, in data set [1], the “AUC reduction (%) TPA” value is −39.0% and the “Peak reduction (%) TPA” value was −30.5%. For the same substance, the “cell migration into BAL fluid” value in data set [2] is given as “no significant reduction of cell migration”.

On to “T*C*G*TCGTTCGGCCGATCG*T*C*C (TCGTCGTTCGGCCGATCGTCC; DNA, linkages s3 o14 s3 (s phosphorothioate, o phosphodiester), methylation of C not given here) [IDX9038, oligonucleotide; * = phosphorothioate modification]”, for which, in data set [1], the “AUC reduction (%) TPA” value was −47.4% and the “Peak reduction (%) TPA” value is −37.9%. In addition, the “migration of eosinophils into the BAL fluid” value in data set [2] (P<0.001) is listed as “significantly reduce”. In data set [2] (P<0.05), the “migration of leukocytes into the BAL fluid” value is “significantly reduce”.

In the case of “T*G*C*CATTCGTCGATTTCGTC*G*A*T (TGCCATTCGTCGATTTCGTCGAT; DNA, linkages s3 o16 s3 (s phosphorothioate, o phosphodiester), methylation of C not given here) [IDX9025, oligonucleotide; * = phosphorothioate modification]”, in data set [3] (10 μg one single s.c. injection 20 minutes before AA, compared to PBS control), the “AUC reduction (%) AA” value was −81.9%. Besides, the “Peak reduction (%) AA” value in data set [3] (10 μg subcutaneously 20 minutes before induction of edema) is −14.9%. Further, in data set [1], the “AUC reduction (%) TPA” value is −57.8% and the “Peak reduction (%) TPA” value is given as −23.5%. Besides, in data set [2], the “cell migration into BAL fluid” value was “no significant reduction of cell migration”.
